Experimental data taken from patent US20090062369A1, “USE OF SECRETORY PHOSPHOLIPASE A2 (SPLA2) INHIBITORS TO DECREASE SPLA2 LEVELS” (priority 2007, published 2009).

Tested on: serum sPLA2
Experiment: Effect of twice-a-day oral A-002 on serum sPLA2 levels in subjects with stable coronary artery disease (Example 6)
Assay type: in vivo, human
Description: The protocol for preparing standard curve, test, and quality control samples for use in the assay disclosed herein is set forth in Example 5. Samples are prepared according to this protocol, then loaded in duplicate onto a plate (Cayman catalog no. 485002 or equivalent) that has been pre-coated with a monoclonal sPLA2 antibody (“capture antibody”) that specifically binds sPLA2. In certain embodiments, the capture antibody may interact with a specific form of sPLA2, such as for example sPLA2 type IIA.
sPLA2 acetylcholinesterase:Fab′ conjugate (AChE:Fab′) (“conjugate”) (Cayman catalog no. 485000 or equivalent) is reconstituted in EIA buffer (Cayman catalog no. 400060 or equivalent). Cayman EIA buffer is 1M phosphate, pH 7.0, 1% BSA, 4M NaCl, 10 mM EDTA, and 0.1% sodium azide. Reconstituted conjugate is added to each well of the plate. The conjugate binds a different sPLA2 epitope than the capture antibody, allowing the capture antibody and the conjugate to form a “sandwich” that is immobilized on the plate. Excess reagents are washed away, and the plate is covered and incubated overnight at 2-8° C.
Prior to development, the wells are washed five to six times with wash buffer (Cayman catalog no. 400062 or equivalent). To develop the plate, Ellman's Reagent (Cayman catalog no. 400050 or equivalent) is reconstituted in water and added to each well according to manufacturer instructions. The reconstituted Ellman's Reagent must be used the same day it is prepared because it is unstable. Ellman's Reagent contains an AChE substrate. Specifically, Ellman's Reagent contains acetylthiocholine and 5,5′-dithio-bis-(2-nitrobenzoic acid). Hydrolysis of acetylthiocholine by acetylcholinesterase produces thiocholine, which reacts with 5,5′-dithio-bis-(2-nitrobenzoic acid) to produce 5-thio-2-nitrobenzoic acid. 5-thio-2-nitrobenzoic acid has a strong absorbance at 412 nm. The intensity of absorbance at this wavelength is directly proportional to the concentration of bound conjugate, which is in turn is directly proportional to the concentration of sPLA2 present (Absorbance a [AChE:Fab′ conjugate] α [sPLA2]). During the development step, the plate is shaken, preferably in the dark. In certain embodiments the development time for the assay is 0.5 to 3 hours, preferably 1 to 1.5 hours. At the end of the development period, the high sPLA2 standards should have greater yellow color development than the zero standards. Absorbance of each well is measured at 400-420 nm using a micro-well plate reader. In certain embodiments, absorbance is measured at about 405 nm.
Absorbance readings for duplicate wells are averaged, and the relative standard deviation and % CV are calculated. Standard curve data are used to generate a four parameter curve, and quality control and test samples are measured against the appropriate standard curve (i.e., the standard curve with the same serum content). In order for a test to be considered valid, variation between duplicate wells should be no more than about 25%, and negative controls (blanks) for each standard curve should have a mean absorbance of less than about 0.3.
The method disclosed herein for measuring sPLA2 levels in serum was utilized to determine the effect of administering certain sPLA2 inhibitors on sPLA2 levels in 84 human subjects. The subjects included 24 subjects with diabetes, 32 subjects with metabolic syndrome, and 75 subjects receiving statin treatment. Subjects were administered the sPLA2 inhibitor A-002, a prodrug form of A-001, twice a day at varying dosages from 50 to 500 mg. The structures of A-002and A-001 are set forth below. At two weeks and four weeks after the first administration, sPLA2 levels were measured and compared to pre-administration baseline levels.
84 subjects with stable coronary artery disease were randomized to receive placebo or A-002 via oral administration twice a day over a four week administration period. […]

[1] = 100 mg, statin subgroup of ITT population
[2] = 250 mg, diabetes subgroup of ITT population
[3] = 250 mg, non-diabetes subgroup of ITT population

SMILES: CCc1c(C(=O)C(N)=O)c2c(OCC(=O)OC)cccc2n1Cc1ccccc1 [A-002, [[3-(2-Amino-1,2-dioxoethyl)-2-ethyl-1-(phenylmethyl)-1H-indol-4-yl]oxy]acetic acid methyl ester]
- sPLA2 Change from baseline at week 4, Range [1]: -5.70 to 0.00 ng/mL
- sPLA2 level, Baseline, Mean [1]: 2.72 ng/mL
- sPLA2 level, Baseline, Median [1]: 2.65 ng/mL
- sPLA2 level, Baseline, Range [1]: 0.05 to 6.00 ng/mL
- sPLA2 level, Week 2, Mean [1]: 0.66 ng/mL
- sPLA2 level, Week 2, Median [1]: 0.40 ng/mL
- sPLA2 level, Week 2, Range [1]: 0.05 to 2.90 ng/mL
- sPLA2 level, Week 4, Mean [1]: 0.44 ng/mL
- sPLA2 level, Week 4, Median [1]: 0.40 ng/mL
- sPLA2 level, Week 4, Range [1]: 0.05 to 1.00 ng/mL
- sPLA2 Change from baseline at week 2, Mean (250 mg, ITT population): -2.02 ng/mL
- sPLA2 Change from baseline at week 2, Median (250 mg, ITT population): -1.90 ng/mL
- sPLA2 Change from baseline at week 2, Range (250 mg, ITT population): -4.20 to -0.20 ng/mL
- sPLA2 Change from baseline at week 4, Mean (250 mg, ITT population): -2.13 ng/mL
- sPLA2 Change from baseline at week 4, Median (250 mg, ITT population): -2.20 ng/mL
- sPLA2 Change from baseline at week 4, Range (250 mg, ITT population): -4.20 to 0.20 ng/mL
- sPLA2 level, Baseline, Mean (250 mg, ITT population): 2.88 ng/mL
- sPLA2 level, Baseline, Median (250 mg, ITT population): 2.40 ng/mL
- sPLA2 level, Baseline, Range (250 mg, ITT population): 1.30 to 5.20 ng/mL
- sPLA2 level, Week 2, Mean (250 mg, ITT population): 0.73 ng/mL
- sPLA2 level, Week 2, Median (250 mg, ITT population): 0.35 ng/mL
- sPLA2 level, Week 2, Range (250 mg, ITT population): 0.05 to 4.40 ng/mL
- sPLA2 level, Week 4, Mean (250 mg, ITT population): 0.61 ng/mL
- sPLA2 level, Week 4, Median (250 mg, ITT population): 0.35 ng/mL
- sPLA2 level, Week 4, Range (250 mg, ITT population): 0.05 to 2.30 ng/mL
- sPLA2 Change from baseline at week 2, Mean [2]: -1.83 ng/mL
- sPLA2 Change from baseline at week 2, Median [2]: -1.10 ng/mL
- sPLA2 Change from baseline at week 2, Range [2]: -4.20 to -0.20 ng/mL
- sPLA2 Change from baseline at week 4, Mean [2]: -1.75 ng/mL
- sPLA2 Change from baseline at week 4, Median [2]: -1.25 ng/mL
- sPLA2 Change from baseline at week 4, Range [2]: −4.20 to +0.20 ng/ml
- sPLA2 level, Baseline, Mean [2]: 3.00 ng/mL
- sPLA2 level, Baseline, Median [2]: 3.00 ng/mL
- sPLA2 level, Baseline, Range [2]: 1.30 to 4.70 ng/mL
- sPLA2 level, Week 2, Mean [2]: 0.60 ng/mL
- sPLA2 level, Week 2, Median [2]: 0.50 ng/mL
- sPLA2 level, Week 2, Range [2]: 0.20 to 1.10 ng/mL
- sPLA2 level, Week 4, Mean [2]: 0.68 ng/mL
- sPLA2 level, Week 4, Median [2]: 0.50 ng/mL
- sPLA2 level, Week 4, Range [2]: 0.05 to 1.50 ng/mL
- sPLA2 Change from baseline at week 2, Mean [3]: -2.08 ng/mL
- sPLA2 Change from baseline at week 2, Median [3]: -2.00 ng/mL
- sPLA2 Change from baseline at week 2, Range [3]: -3.80 to -0.80 ng/mL
- sPLA2 Change from baseline at week 4, Mean [3]: -2.25 ng/mL
- sPLA2 Change from baseline at week 4, Median [3]: -2.20 ng/mL
- sPLA2 Change from baseline at week 4, Range [3]: -3.50 to -1.20 ng/mL
- sPLA2 level, Baseline, Mean [3]: 2.84 ng/mL
- sPLA2 level, Baseline, Median [3]: 2.40 ng/mL
- sPLA2 level, Baseline, Range [3]: 1.50 to 5.20 ng/mL
- sPLA2 level, Week 2, Mean [3]: 0.76 ng/mL
- sPLA2 level, Week 2, Median [3]: 0.30 ng/mL
- sPLA2 level, Week 2, Range [3]: 0.05 to 4.40 ng/mL
- sPLA2 level, Week 4, Mean [3]: 0.60 ng/mL
- sPLA2 level, Week 4, Median [3]: 0.30 ng/mL
- sPLA2 level, Week 4, Range [3]: 0.05 to 2.30 ng/mL
